Article PMC6257622, “Discovery and Structure–Activity-Relationship Study of N-Alkyl-5-hydroxypyrimidinone Carboxamides as Novel Antitubercular Agents Targeting Decaprenylphosphoryl-β-D-ribose 2′-Oxidase” (Journal of Medicinal Chemistry, 2018)
≈ marks a conversion by molar mass, not a printed value. Like-named read-outs stand apart in the source and are kept apart here.

Legend:
Mtb strain H37Rv = experiment: MIC determination against Mtb H37Rv in different media; format: cell-based, Mycobacterium tuberculosis; settings: for antitubercular activity (in words): SAR discussion
in vitro = format: cell-based; settings: human; HepG2 cells in DMEM/10% FBS supplemented with glucose; read-out: Cytotoxicity (IC50) Glucose
HepG2 cells = experiment: in vitro; format: cell-based
[1] = Mycobacterium tuberculosis, H37RV, Mtb H37Rv in GAST (Table 2), read-out: MIC GAST
[2] = Mycobacterium tuberculosis, H37RV, supplementary CSV, read-out: MIC in 7H9/ADC
[3] = Mycobacterium tuberculosis, H37RV, supplementary CSV, read-out: MIC in GAST/Fe
[4] = Mycobacterium tuberculosis, H37RV, read-out: MIC 7H9/ADC
[5] = HepG2 cells in DMEM/10% FBS with galactose (mitochondrial toxicity), read-out: Cytotoxicity (IC50) Galactose
[6] = Mtb H37Rv in GAST (Table 2), read-out: MIC GAST
[7] = supplementary CSV, read-out: MIC in 7H9/ADC
[8] = supplementary CSV, read-out: MIC in GAST/Fe
[9] = HepG2 cells in DMEM/10% FBS supplemented with glucose, read-out: Cytotoxicity (IC50) Glucose

Molecule	MIC (Mtb strain H37Rv; [1])	MIC (Mtb strain H37Rv; [2])	MIC (Mtb strain H37Rv; [3])	MIC (Mtb strain H37Rv; [4])	IC50 (in vitro)	IC50 (HepG2 cells; [5])	antitubercular activity (in words) (Mtb strain H37Rv)	fold increase in MIC (reduced potency) compared with P01 (Mtb strain H37Rv)	MIC (Mtb strain H37Rv; [6])	MIC (Mtb strain H37Rv; read-out: MIC 7H9/ADC)	MIC (Mtb strain H37Rv; [7])	MIC (Mtb strain H37Rv; [8])	IC50 (HepG2 cells; [9])
Cn1c(Cc2ccccc2C(F)(F)F)nc(C(=O)NCc2ccc3c(c2)OCO3)c(O)c1=O [Compound P11, N-(Benzo[d][1,3]dioxol-5-ylmethyl)-5-hydroxy-1-methyl-6-oxo-2-(2-(trifluoromethyl)benzyl)-1,6-dihydropyrimidine-4-carboxamide]	37.5 µM (≈ 17.3 µg/mL)	> 100 µM	37.5 µM (≈ 17.3 µg/mL)	> 100 µM	> 100 µM	> 100 µM	–	–	–	–	–	–	–
CN(Cc1ccccc1)C(=O)c1nc(Cc2ccccc2C(F)(F)F)n(C)c(=O)c1O [Compound P12, N-Benzyl-5-hydroxy-N,1-dimethyl-6-oxo-2-(2-(trifluoromethyl)benzyl)-1,6-dihydropyrimidine-4-carboxamide]	> 100 µM	> 100 µM	> 100 µM	> 100 µM	> 100 µM	> 100 µM	loss of activity	–	–	–	–	–	–
CC(NC(=O)c1nc(Cc2ccccc2C(F)(F)F)n(C)c(=O)c1O)c1ccccc1 (stereo not shown) [Compound P13, 5-Hydroxy-1-methyl-6-oxo-N-(1-phenylethyl)-2-(2-(trifluoromethyl)benzyl)-1,6-dihydropyrimidine-4-carboxamide]	> 100 µM	> 100 µM	> 100 µM	> 100 µM	> 100 µM	> 100 µM	loss of activity	–	–	–	–	–	–
O=C(NCc1ccccc1)c1nc(Cc2ccccc2C(F)(F)F)[nH]c(=O)c1O [Compound P14, N-Benzyl-5-hydroxy-6-oxo-2-(2-(trifluoromethyl)benzyl)-1,6-dihydropyrimidine-4-carboxamide]	> 100 µM	> 100 µM	> 100 µM	> 100 µM	> 100 µM	> 100 µM	not tolerated	–	–	–	–	–	–
CC(c1ccccc1C(F)(F)F)c1nc(C(=O)NCc2ccccc2)c(O)c(=O)n1C (stereo not shown) [Compound P15, N-Benzyl-5-hydroxy-1-methyl-6-oxo-2-(1-(2-(trifluoromethyl)phenyl)ethyl)-1,6-dihydropyrimidine-4-carboxamide]	3.1 µM (≈ 1.34 µg/mL)	18.3 µM (≈ 7.89 µg/mL)	3.1 µM (≈ 1.34 µg/mL)	18.3 µM (≈ 7.89 µg/mL)	> 100 µM	> 100 µM	–	5 fold	–	–	–	–	–
COc1c(C(=O)NCc2ccccc2)nc(Cc2ccccc2C(F)(F)F)n(C)c1=O [Compound P17, N-Benzyl-5-methoxy-1-methyl-6-oxo-2-(2-(trifluoromethyl)benzyl)-1,6-dihydropyrimidine-4-carboxamide]	> 100 µM	> 100 µM	> 100 µM	> 100 µM	> 100 µM	> 100 µM	inactive	–	–	–	–	–	–
Cn1c(Cc2ccccc2C(F)(F)F)nc(C(=O)CCc2ccccc2)c(O)c1=O [Compound P18, 5-Hydroxy-3-methyl-6-(3-phenylpropanoyl)-2-(2-(trifluoromethyl)benzyl)pyrimidin-4(3H)-one]	12.5 µM (≈ 5.2 µg/mL)	100 µM (≈ 41.6 µg/mL)	12.5 µM (≈ 5.2 µg/mL)	100 µM (≈ 41.6 µg/mL)	> 100 µM	> 100 µM	–	–	–	–	–	–	–
N-Benzyl-2-ethyl-5-hydroxy-1-methyl-6-oxo-1,6-dihydropyrimidine-4-carboxamide [Compound P03]	–	–	–	–	–	> 100 µM	complete loss of potency	–	>100 µM	>100 µM	>100 µM	>100 µM	> 100 µM
N-Benzyl-5-hydroxy-6-methoxy-2-(2-(trifluoromethyl)benzyl)pyrimidine-4-carboxamide [Compound P16]	–	–	–	–	–	> 100 µM	inactive	–	37.5 µM	>100 µM	>100 µM	37.5 µM	> 100 µM
